Where two headings read alike, the source gives them in different places.
Tests used:
[1] = In vitro AOC (anti-oxidant capacity); conditions: effective concentrations between 0.1 μg/ml and 10 μg/ml as measured in the serum
Excerpt: The compositions of the invention may be of any type. […] Mannitol and proline in particular have well documented anti-oxidant properties.

CSB mice [2] = assay: Age-related photoreceptor loss in CSB mice, TUNEL staining of the retina, without radiation; assay type: in vivo, mouse; conditions: for Apoptotic index without radiation (number of TUNEL-positive cells): osmotic pump, 3 weeks, CSB mice age 6 months
Description: (§1) CSB mice have accelerated aging-related photoreceptor loss. […] The photoreceptor loss can also be induced in young adult CSB mice (8-10 weeks) with γ-irradiation (induces a.o. oxidative DNA damage). Since aging-related photoreceptor-loss is at least in part caused by unrepaired oxidative DNA damage, we are able to intervene with anti-oxidant or radical scavenger molecules, in particular with mannitol and/or proline. 21 CSB animals, age 6 months, received an osmotic pump, 7×30 mm (volume 200 μl), subcutaneously implanted under the skin on the back, for continuous release of Phosphate Buffered Saline (control), 0.3M D-Mannitol or 0.03M D-Mannitol dissolved in Phosphate Buffered Saline, 7 animals per compound. To determine the actual D-Mannitol concentration in the blood of these animals, blood samples were taken every 7 days after the implantation of the osmotic pump. After three weeks, eyes were isolated from these animals and TUNEL staining was performed to determine the effect of D-Mannitol on diminishing the age-related photoreceptor-loss in CSB animals, Blood and urine samples were taken for measurements of D-mannitol levels and for determination of biomarkers. In a second experiment, the D-Mannitol treatment via osmotic pumps were repeated, but here on 8 week-old CSB mice were γ-irradiated, in order to see if D-mannitol can reduce the γ-induced photoreceptor-loss observed in CSB mice. For retinal evaluation by TUNEL staining, eyes were marked nasally with Alcian blue (5% Alcian blue in 96% ethanol), enucleated, fixed in 4% paraformaldehyde in 0.1M phosphate buffer, washed in PBS and embedded in paraffin. Horizontal sections (5 μm thick) of the retina were cut and sections in the middle of the retina were selected by Alcian blue marking and proximity of the optic nerve. […] For quantification, the number of TUNEL-positive cells in the inner nuclear layer (INL) and outer nuclear layer (ONL) were counted in 6 whole sections per mouse.

[3] = tested on: Csb^G744ter/G744ter/Xpa^null/null double mutant mice; assay type: in vivo, mouse; conditions: for Clearance from the tissues and bloodstream of treated subjects: higher single dose administrations; for Effectiveness of higher single dose administrations: versus low constant source; for Positive results as with mannitol and/or proline: tested under similar conditions
Excerpt: Additionally these animals have an enhanced photoreceptor cell loss. The accumulation of oxidative DNA damage before and immediately after birth presumably negatively influences transcription and causes the premature ageing phenotype.
In order to investigate the effect of radical scavengers on the CSB/XPA double knockout mice, the effect of several compounds and compositions was monitored by the frequency of CSB/XPA DKO mice (closer to the expected mendelian frequency of 25%), an extended life-span (longer than the average three weeks for untreated DKO mice) and a delay or to some extent inhibit the premature ageing phenotype.
To obtain CSB/XPA double mutant mice the following crossing were done:
From these crossings CSB^−/−XPA^−/− mice were born with a frequency of 9%, whereas the expected Mendelian frequency is 25%.
The offspring were genotyped following normal procedures (tail clipping and genomic DNA analysis by Southern blot analysis or PCR amplification) and monitored for life span.

CSB mice [4] = assay: γ-irradiation induced photoreceptor loss in CSB mice, TUNEL staining of the retina; assay type: in vivo, mouse; conditions: osmotic pump, 8 week-old CSB mice, γ-irradiated
Description: as §1, with “biomarkers.” for “biomarkers. In a second experiment, the D-Mannitol treatment via osmotic pumps were repeated, but here on 8 week-old CSB mice were γ-irradiated, in order to see if D-mannitol can reduce the γ-induced photoreceptor-loss observed in CSB mice. For retinal evaluation by TUNEL staining, eyes were marked nasally with Alcian blue (5% Alcian blue in 96% ethanol), enucleated, fixed in 4% paraformaldehyde in 0.1M phosphate buffer, washed in PBS and embedded in paraffin. Horizontal sections (5 μm thick) of the retina were cut and sections in the middle of the retina were selected by Alcian blue marking and proximity of the optic nerve.”, “mouse. […]” for “mouse.”

[5] = Serum mannitol concentration in CSB mice with osmotic pump; assay type: in vivo; conditions: mouse, sc, subcutaneous osmotic pump (200 μl), read-out: Serum [mannitol] after 3 weeks
Description: The sample is further precipitated using acetonitrile and centrifuged. […] The organic layer is isolated and evaporated to dryness. The residue is dissolved in injection solvent and injected.
21 CSB animals, age 6 months, received an osmotic pump, 7×30 mm (volume 200 μl), subcutaneously implanted under the skin on the back, for continuous release of Phosphate Buffered Saline (control), 0.3M D-Mannitol or 0.03M D-Mannitol dissolved in Phosphate Buffered Saline, 7 animals per compound. To determine the actual D-Mannitol concentration in the blood of these animals, blood samples were taken every 7 days after the implantation of the osmotic pump. After three weeks, eyes were isolated from these animals and TUNEL staining was performed to determine the effect of D-Mannitol on diminishing the age-related photoreceptor-loss in CSB animals, Blood and urine samples were taken for measurements of D-mannitol levels and for determination of biomarkers. In a second experiment, the D-Mannitol treatment via osmotic pumps were repeated, but here on 8 week-old CSB mice were γ-irradiated, in order to see if D-mannitol can reduce the γ-induced photoreceptor-loss observed in CSB mice.

[6] = Transmission of D-Mannitol and L-Proline from mother to pup, osmotic pump in pregnant wild type mice, LC-MS/MS levels; conditions: osmotic pump 200 μl, 0.3M alone or 0.2M each combined, 28 days, pregnant wild type mice (C57B1/6)
Description: The sample is further precipitated using acetonitrile and centrifuged.
(§2) The LLOQ (Lowest Limit of Quantitation) for proline is typically 0.250 μg/ml. […] The sample is further precipitated using acetonitrile and centrifuged. An aliquot of the supernatant is evaporated to dryness under a steam of nitrogen at 60° C., Milli-Q water is added and the preparation is vortexed. Methanol is subsequently added to the preparation and vortexed. Usually Milli-Q water and methanol are added in a ratio of 1/5. The preparation is centrifuged for 2 minutes at a speed of 4000 g or more. The obtained preparation is injected. The apparatus used for LC-MS/MS is API4000 LC-MS/MS.

[7] = 0.2M L-Proline via drinking water, one week, wt animals
Description: as §2
L-Proline was also measured in the blood and urine of four wt animals that received 0.2M L-Proline via their drinking water. As a control, four wt animals received just drinking water. The duration of this treatment was one week, after which one blood sample and one urine sample was taken.

[8] = 5% D-mannitol in PBS, osmotic pump in pregnant females

OC[C@@H](O)[C@@H](O)[C@H](O)[C@H](O)CO [Mannitol, hexane-1,2,3,4,5,6-hexyl]
AOC (anti-oxidant capacity) in vitro [1]: no or negligible
Apoptotic index without radiation (number of TUNEL-positive cells) (CSB mice [2]; 0.03M D-Mannitol): 24.1 ± 6.8
Apoptotic index without radiation (number of TUNEL-positive cells) (CSB mice [2]; 0.3M D-Mannitol): 24.8 ± 6.0
Change of the apoptotic index (photoreceptor loss) (CSB mice [2]; endogenous or exogenous (radiation induced) oxidative stress, CSB mice): significant decrease
Frequency of birth and survival after birth of XPA/CSB double KO mice ([3]; 2% D-Mannitol administered to drinking water): Comparable results
Frequency of birth of XPA/CSB double KO mice [3, 8]: increase in frequency of birth
Survival after birth (life span) of XPA/CSB double KO mice [3, 8]: increase in survival after birth
Clearance from the tissues and bloodstream of treated subjects [3]: rapidly cleared
Effectiveness of higher single dose administrations [3]: less or even ineffective
Apoptotic index after radiation (number of TUNEL-positive cells) (CSB mice [4]; 0.03M D-Mannitol): 29.5 ± 6.0
Apoptotic index after radiation (number of TUNEL-positive cells) (CSB mice [4]; 0.3M D-Mannitol): 28.9 ± 11.3
concentration at 3 weeks ([5]; 0.03 M (200 μl osmotic pump, continuous release), 0.03M D-Mannitol in PBS): 100 ± 30 ng/mL
concentration at 3 weeks ([5]; 0.3 M (200 μl osmotic pump, continuous release), 0.3M D-Mannitol in PBS): 650 ± 180 ng/mL

O=C(O)[C@@H]1CCCN1 [proline, L-Proline]
AOC (anti-oxidant capacity) in vitro [1]: no or negligible
Elevated levels in blood of mothers and pups, in milk or in whole embryo's [6]: not detected
L-Proline levels in the blood [7]: no elevated levels
L-Proline levels in the urine [7]: High levels
Clearance from the tissues and bloodstream of treated subjects [3]: rapidly cleared
Effectiveness of higher single dose administrations [3]: less or even ineffective
Frequency of survival of DKO pups after birth ([3]; proline treatment): equally effective in increasing the frequency of survival

O=C1O[C@H]([C@@H](O)CO)C(O)=C1O [vitamin C]
Positive results as with mannitol and/or proline [3]: did not yield the positive results

vitamin E
Positive results as with mannitol and/or proline [3]: did not yield the positive results

From patent publication US20120045483A1, “Mannitol and/or Proline for Prevention and Treatment of Ageing Related Symptoms” (ERASMUS MC, priority 2006, published 2012)
